Reference: ChEMBL document CHEMBL1146422, “Isolation and structure of the human cancer cell growth inhibitory cyclodepsipeptide dolastatin 16” (1997)
Values after ≈ are worked out from the molar mass of the structure shown. *1 amine or outer side, *2 acyl side, *3 side chain or, on linkers, in order; H or OH if unused. Where a SMILES comes first, the peptide text is derived from it. [ ]: non-standard residue; d: D form. X1 = CC(Cc1ccccc1)C(N[*:1])C(=O)[*:2]; X2 = CC(C)C(N[*:1])C(C)C(=O)[*:2]; dNMeV = CN[C@@H](C(=O)O)C(C)C; dHiv = CC(C)[C@@H](O)C(=O)O; Lac = C[C@H](O)C(=O)O

Tests used:
Assay type in all cases: functional
KM-20L2 = assay: Growth inhibition of human KM20L2 cells
SK-MEL-5 = assay: Growth inhibition of human SK-MEL-5 cells
MDA-N = assay: Growth inhibition of human MDA-N cells
SF-295 = assay: Growth inhibition of human SF295 cells
NCI-H460 = assay: Growth inhibition of human NCI-H460 cells
MDA-MB-435 = assay: Growth inhibition of human MDA-MB-435 cells
MCF7 = assay: Growth inhibition of human MCF7 cells

## CC(C)C1NC(=O)[C@@H]2CCCN2C(=O)C(C(C)Cc2ccccc2)NC(=O)[C@@H]2CCCN2C(=O)[C@@H](C(C)C)N(C)C(=O)[C@@H](C(C)C)OC(=O)[C@@H]2CCCN2C(=O)[C@H](C)OC(=O)C1C (some centres not stated) [DOLASTATIN 16] (cyclo([Lac]P[dHiv][dNMeV]P[X1]P[X2]))
KM-20L2
  GI50: 1.2 ng/mL (≈ 1.37 nM)
SK-MEL-5
  GI50: 3.3 ng/mL (≈ 3.75 nM)
MDA-N
  GI50: 28.8 nM
SF-295
  GI50: 5.2 ng/mL (≈ 5.92 nM)
NCI-H460
  GI50: 0.96 ng/mL (≈ 1.09 nM)
MDA-MB-435
  GI50: 34.7 nM
MCF7
  GI50: 47.9 nM
